Among the data in ChEMBL document CHEMBL3098003, “Structure-based design of 2-aminopyridine oxazolidinones as potent and selective tankyrase inhibitors” (ACS Med Chem Lett, 2013) are IC50 and EC50 values, retold here.

Test [1] concerns the target T1, Tankyrase 1/2 (Homo sapiens, UniProt Q9H2K2+O95271).
T1 sequence (Q9H2K2 whole entry): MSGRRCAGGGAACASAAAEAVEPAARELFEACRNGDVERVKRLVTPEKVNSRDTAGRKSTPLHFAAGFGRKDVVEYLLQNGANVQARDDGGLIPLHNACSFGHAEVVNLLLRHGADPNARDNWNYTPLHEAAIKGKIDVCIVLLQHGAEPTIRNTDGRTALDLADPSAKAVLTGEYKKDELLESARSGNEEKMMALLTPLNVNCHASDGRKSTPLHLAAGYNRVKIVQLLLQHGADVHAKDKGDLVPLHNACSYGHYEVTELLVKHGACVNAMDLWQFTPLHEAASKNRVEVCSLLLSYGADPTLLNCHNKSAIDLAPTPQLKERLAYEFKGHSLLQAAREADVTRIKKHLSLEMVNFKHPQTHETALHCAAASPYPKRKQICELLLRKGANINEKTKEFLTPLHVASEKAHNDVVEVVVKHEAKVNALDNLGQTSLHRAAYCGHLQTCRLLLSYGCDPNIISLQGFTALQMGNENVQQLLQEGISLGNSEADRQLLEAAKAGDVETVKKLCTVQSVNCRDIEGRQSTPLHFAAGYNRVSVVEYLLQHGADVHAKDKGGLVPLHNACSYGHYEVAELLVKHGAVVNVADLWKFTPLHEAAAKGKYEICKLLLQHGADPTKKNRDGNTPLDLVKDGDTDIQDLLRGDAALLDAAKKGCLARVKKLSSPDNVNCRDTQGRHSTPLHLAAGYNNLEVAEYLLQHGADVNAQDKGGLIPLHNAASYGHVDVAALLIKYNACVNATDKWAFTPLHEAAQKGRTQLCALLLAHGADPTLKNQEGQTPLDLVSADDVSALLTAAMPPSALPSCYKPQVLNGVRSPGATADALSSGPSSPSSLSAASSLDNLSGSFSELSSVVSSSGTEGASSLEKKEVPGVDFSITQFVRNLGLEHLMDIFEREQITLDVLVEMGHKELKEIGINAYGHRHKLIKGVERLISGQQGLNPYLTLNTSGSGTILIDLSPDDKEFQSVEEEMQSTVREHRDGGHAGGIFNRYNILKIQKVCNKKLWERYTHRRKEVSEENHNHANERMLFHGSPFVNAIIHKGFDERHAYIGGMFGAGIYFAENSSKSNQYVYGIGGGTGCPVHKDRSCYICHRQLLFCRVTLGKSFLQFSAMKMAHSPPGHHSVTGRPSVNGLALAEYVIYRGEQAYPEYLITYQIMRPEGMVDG
T1 sequence (O95271 whole entry): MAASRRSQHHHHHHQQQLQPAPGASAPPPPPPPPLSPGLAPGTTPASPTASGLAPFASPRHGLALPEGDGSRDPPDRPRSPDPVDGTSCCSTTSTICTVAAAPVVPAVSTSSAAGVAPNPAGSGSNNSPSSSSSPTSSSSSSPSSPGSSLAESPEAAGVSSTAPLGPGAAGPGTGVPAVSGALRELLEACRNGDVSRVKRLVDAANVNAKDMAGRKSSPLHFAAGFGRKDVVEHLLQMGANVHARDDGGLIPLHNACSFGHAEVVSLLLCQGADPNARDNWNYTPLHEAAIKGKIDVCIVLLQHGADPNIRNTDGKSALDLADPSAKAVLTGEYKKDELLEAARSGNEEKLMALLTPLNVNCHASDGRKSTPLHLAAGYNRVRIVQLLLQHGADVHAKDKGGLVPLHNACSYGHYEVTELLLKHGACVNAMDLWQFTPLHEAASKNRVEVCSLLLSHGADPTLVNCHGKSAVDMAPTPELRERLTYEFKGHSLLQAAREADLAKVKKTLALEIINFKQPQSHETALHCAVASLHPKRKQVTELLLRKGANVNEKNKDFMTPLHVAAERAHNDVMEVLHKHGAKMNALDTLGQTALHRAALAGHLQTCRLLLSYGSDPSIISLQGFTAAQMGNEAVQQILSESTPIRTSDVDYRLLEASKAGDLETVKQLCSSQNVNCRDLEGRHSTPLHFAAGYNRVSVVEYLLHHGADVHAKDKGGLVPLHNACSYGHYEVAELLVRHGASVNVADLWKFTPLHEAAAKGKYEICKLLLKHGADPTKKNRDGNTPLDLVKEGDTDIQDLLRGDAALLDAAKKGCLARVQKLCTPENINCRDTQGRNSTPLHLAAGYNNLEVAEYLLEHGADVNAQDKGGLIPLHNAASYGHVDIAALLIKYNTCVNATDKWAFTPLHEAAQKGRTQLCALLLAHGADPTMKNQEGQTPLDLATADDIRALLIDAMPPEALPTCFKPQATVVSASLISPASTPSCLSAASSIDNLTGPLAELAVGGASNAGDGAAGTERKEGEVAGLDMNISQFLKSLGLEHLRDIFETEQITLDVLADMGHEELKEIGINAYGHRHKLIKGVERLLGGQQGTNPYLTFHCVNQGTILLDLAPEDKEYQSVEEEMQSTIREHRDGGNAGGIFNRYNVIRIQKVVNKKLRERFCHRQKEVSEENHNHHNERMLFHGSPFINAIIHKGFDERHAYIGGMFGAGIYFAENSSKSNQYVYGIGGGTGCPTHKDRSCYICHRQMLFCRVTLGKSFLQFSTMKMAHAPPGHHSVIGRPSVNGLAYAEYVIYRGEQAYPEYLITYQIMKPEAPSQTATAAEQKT
Briefly: Inhibition of tankyrase in human DLD1 cells assessed as inhibition of Wnt gene transcription after 40 to 48 hrs by STF assay. The format is cell-based. The note with it: dld-1.

Test [2] deals with Poly [ADP-ribose] polymerase 1 (Homo sapiens, UniProt P09874). Briefly: Inhibition of PARP1 (unknown origin).
Chain of Poly [ADP-ribose] polymerase 1 (P09874 whole entry): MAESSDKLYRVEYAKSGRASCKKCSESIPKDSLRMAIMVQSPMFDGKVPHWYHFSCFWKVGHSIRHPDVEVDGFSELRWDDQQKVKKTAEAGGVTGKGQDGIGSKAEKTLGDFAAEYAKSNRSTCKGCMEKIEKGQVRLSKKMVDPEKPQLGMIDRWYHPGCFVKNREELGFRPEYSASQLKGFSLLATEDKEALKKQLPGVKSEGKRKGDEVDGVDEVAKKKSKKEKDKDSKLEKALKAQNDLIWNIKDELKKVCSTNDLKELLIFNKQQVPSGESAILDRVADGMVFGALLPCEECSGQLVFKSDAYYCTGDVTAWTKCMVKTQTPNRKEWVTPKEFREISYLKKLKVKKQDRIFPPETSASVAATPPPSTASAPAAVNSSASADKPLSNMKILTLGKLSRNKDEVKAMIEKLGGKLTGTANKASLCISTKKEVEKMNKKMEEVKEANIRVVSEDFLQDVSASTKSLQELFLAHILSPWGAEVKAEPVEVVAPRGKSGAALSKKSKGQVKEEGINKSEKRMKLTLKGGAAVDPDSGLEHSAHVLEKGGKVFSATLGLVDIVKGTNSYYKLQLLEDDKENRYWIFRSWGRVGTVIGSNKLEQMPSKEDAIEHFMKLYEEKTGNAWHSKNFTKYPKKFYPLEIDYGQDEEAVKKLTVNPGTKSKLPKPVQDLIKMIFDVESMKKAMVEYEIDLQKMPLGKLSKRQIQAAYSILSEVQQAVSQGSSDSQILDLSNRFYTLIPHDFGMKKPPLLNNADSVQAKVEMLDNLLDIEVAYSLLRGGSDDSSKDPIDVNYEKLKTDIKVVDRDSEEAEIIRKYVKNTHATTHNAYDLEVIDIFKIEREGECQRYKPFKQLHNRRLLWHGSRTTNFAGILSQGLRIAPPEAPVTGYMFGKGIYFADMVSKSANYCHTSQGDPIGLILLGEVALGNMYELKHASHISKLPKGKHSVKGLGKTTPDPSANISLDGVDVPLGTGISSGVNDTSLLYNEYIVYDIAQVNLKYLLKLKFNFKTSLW
Test [3] addresses T2, Poly [ADP-ribose] polymerase tankyrase-1 (Homo sapiens, UniProt O95271).
T2 sequence (O95271 whole entry): T1 sequence (O95271 whole entry)
Briefly: Inhibition of recombinant 6XHis-tagged TNKS1 (1091 to 1325) (unknown origin) after 60 mins by spectrophotometric analysis.

In test [4] the target is T1, Tankyrase 1/2. Briefly: Inhibition of tankyrase in human SW480 cells assessed as axin2 accumulation after 24 hrs by Hoechst dye-based assay. The format is cell-based.
Test [5] deals with Poly [ADP-ribose] polymerase 2 (Homo sapiens, UniProt Q9UGN5). Briefly: Inhibition of PARP2 (unknown origin).
Chain of Poly [ADP-ribose] polymerase 2 (Q9UGN5 whole entry): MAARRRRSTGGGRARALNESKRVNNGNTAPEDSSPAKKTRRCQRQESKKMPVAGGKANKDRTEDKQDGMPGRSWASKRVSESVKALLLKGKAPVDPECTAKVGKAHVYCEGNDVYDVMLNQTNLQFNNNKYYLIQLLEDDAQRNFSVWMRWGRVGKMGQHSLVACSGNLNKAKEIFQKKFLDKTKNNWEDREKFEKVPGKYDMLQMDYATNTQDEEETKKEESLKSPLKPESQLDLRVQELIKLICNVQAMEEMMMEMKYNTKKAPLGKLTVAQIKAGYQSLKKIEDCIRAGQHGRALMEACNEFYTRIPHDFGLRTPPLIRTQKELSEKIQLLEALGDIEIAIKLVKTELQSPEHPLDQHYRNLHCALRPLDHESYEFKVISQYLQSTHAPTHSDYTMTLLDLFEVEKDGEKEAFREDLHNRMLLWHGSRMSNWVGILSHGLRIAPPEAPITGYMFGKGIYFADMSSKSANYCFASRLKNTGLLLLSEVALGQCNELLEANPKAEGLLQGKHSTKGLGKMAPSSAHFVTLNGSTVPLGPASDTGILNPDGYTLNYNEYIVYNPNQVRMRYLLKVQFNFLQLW
Test [6] deals with T1, Tankyrase 1/2. Briefly: Inhibition of tankyrase in human SW480 cells assessed as degradation of total beta-catenin after 40 to 48 hrs. It counts as cell-based.

The IC50 is the concentration needed to halve the response being measured. By EC50 is commonly meant the concentration needed to bring the measured effect to its halfway point. For `CC1(C)OC(=O)N([C@H]2CC[C@H](c3cnc(N)c(C#N)c3)CC2)[C@H]1c1ccccc1`, the IC50 was 43 nM in test [1]; above 85000 nM in test [2]; 9 nM in test [3]; above 170000 nM in test [5]; 392 nM in test [6]. In addition, the concentration for a half-maximal effect (EC50) in test [4] was determined as 474 nM.
With `CC1(C)OC(=O)N([C@H]2CC[C@H](c3ccc(N)nc3)CC2)[C@H]1c1ccccc1`, the concentration for half-maximal inhibition (IC50) in test [3] was 148 nM.
On to `CC1(C)CC(=O)Nc2cc(NC(=O)c3cc(-c4ccc5nc(N)ncc5c4)ccc3F)ccc21`, for which the IC50 in test [3] was found to be 150 nM; in test [6] it was 2000 nM.
